According to ChEMBL document CHEMBL6071152, “Design, synthesis, and biological evaluation of oridonin derivatives as novel NLRP3 inflammasome inhibitors for the treatment of acute lung injury” (Eur J Med Chem, 2024):
Calls of active or inactive are those of the source. The calls are words filed in the database; no cut-off is given here.

What was measured:
[1] = target: NACHT, LRR and PYD domains-containing protein 3 (Mus musculus) (UniProt Q8R4B8); experiment: Inhibition of NLRP3 inflammasome priming in ICR mouse BMDM assessed as inhibition of pro-caspase-1 protein expression in cell lysate at 1 uM treated for 3 hrs with LPS followed by incubation with compound for 1 hr and later stimulated with MSU for 4 hrs by western blot analysis; type: subcellular; settings: time 5.0 hrs
Chain of NACHT, LRR and PYD domains-containing protein 3 (Mus musculus) (Q8R4B8 whole entry, the tested form may be a part): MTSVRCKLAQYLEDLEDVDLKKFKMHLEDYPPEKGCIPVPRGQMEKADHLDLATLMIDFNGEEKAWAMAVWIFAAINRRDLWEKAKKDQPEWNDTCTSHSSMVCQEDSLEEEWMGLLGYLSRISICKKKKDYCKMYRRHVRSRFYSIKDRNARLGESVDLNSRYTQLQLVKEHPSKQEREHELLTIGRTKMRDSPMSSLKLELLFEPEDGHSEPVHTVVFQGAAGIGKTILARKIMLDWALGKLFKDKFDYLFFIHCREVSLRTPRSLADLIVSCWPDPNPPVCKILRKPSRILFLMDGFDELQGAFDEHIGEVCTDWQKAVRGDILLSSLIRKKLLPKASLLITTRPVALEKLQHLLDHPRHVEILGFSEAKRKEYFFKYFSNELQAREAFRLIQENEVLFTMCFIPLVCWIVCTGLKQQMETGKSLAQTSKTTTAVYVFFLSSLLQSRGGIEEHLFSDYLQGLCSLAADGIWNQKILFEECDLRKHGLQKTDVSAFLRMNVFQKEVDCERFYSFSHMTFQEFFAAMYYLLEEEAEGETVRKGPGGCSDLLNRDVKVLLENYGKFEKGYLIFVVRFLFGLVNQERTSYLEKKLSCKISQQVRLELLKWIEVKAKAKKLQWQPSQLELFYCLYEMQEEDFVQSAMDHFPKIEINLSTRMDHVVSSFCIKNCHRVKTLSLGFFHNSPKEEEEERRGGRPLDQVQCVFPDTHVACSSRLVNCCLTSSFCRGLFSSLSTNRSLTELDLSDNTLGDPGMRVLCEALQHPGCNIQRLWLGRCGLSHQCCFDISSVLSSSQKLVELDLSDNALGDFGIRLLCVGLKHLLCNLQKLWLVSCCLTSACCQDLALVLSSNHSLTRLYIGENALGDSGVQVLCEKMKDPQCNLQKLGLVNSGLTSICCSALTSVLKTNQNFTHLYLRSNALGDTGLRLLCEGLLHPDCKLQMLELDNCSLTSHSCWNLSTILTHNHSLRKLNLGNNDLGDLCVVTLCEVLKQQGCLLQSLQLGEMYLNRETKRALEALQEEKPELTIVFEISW

[2] = test system: Mus musculus; experiment: (§1) Anti-inflammatory activity against LPS-stimulated acute lung injury C57BL/6 mouse model assessed as decrease in IL-1 beta expression in right lung at 0.1 to 10 mg/kg, ip treated for 3 days and on third day administered with LPS at 30 mins post-compound challenge and measured after 12 hrs by western blot analysis; type: functional, organism-based; settings: dose 0.1-10 mg/kg, time 3.5 day
[3] = test system: Mus musculus; experiment: Anti-inflammatory activity against LPS-stimulated acute lung injury C57BL/6 mouse model assessed as decrease in weight loss at 0.1 to 1 mg/kg, ip treated for 3 days and on third day administered with LPS at 30 mins post-compound challenge; type: functional, organism-based; settings: dose 0.1-1 mg/kg, time 3.0 day
[4] = target: NACHT, LRR and PYD domains-containing protein 3 (Mus musculus) (UniProt Q8R4B8); experiment: Inhibition of NLRP3 inflammasome priming in ICR mouse BMDM assessed as inhibition of pro-IL-1 beta protein expression in cell lysate at 1 uM treated for 3 hrs with LPS followed by incubation with compound for 1 hr and later stimulated with ATP for 0.5 hrs by western blot analysis; type: subcellular; settings: time 1.5 hrs
[5] = test system: Mus musculus; experiment: as §1, with “partial alveolar congestion” for “IL-1 beta expression”, “1” for “0.1”, “Hematoxylin-Eosin staining” for “western blot”; type: functional, organism-based; settings: dose 1-10 mg/kg, time 3.5 day
[6] = test system: Mus musculus; experiment: Anti-inflammatory activity against LPS-stimulated acute lung injury C57BL/6 mouse model assessed as decrease in IL-1 beta level in BALF at 0.1 to 1 mg/kg, ip treated for 3 days and on third day administered with LPS at 30 mins post-compound challenge and measured after 12 hrs by ELISA; type: functional, organism-based; settings: dose 0.1-1 mg/kg, time 3.5 day
[7] = target: NACHT, LRR and PYD domains-containing protein 3 (Mus musculus) (UniProt Q8R4B8); experiment: Inhibition of NLRP3 inflammasome priming in ICR mouse BMDM assessed as inhibition of pro-IL-1 beta protein expression in cell lysate at 0.2 to 5 uM treated for 3 hrs with LPS followed by incubation with compound for 1 hr and later stimulated with ATP for 0.5 hrs by western blot analysis; type: subcellular; settings: dose 0.2-5 µM, time 1.5 hrs
[8] = test system: Mus musculus; experiment: as §1, with “inflammatory cell infiltration” for “IL-1 beta expression”, “1” for “0.1”, “Hematoxylin-Eosin staining” for “western blot”; type: functional, organism-based; settings: dose 1-10 mg/kg, time 3.5 day
[9] = test system: Mus musculus; experiment: as §1, with “caspase-1” for “IL-1 beta”; type: functional, organism-based; settings: dose 0.1-10 mg/kg, time 3.5 day
[10] = target: NACHT, LRR and PYD domains-containing protein 3 (Mus musculus) (UniProt Q8R4B8); experiment: Inhibition of NLRP3 inflammasome priming in ICR mouse BMDM assessed as inhibition of pro-caspase-1 expression in cell lysate at 1 uM treated for 3 hrs with LPS followed by incubation with compound for 1 hr and later stimulated with nigericin for 0.5 hrs by western blot analysis; type: subcellular; settings: time 1.5 hrs
[11] = test system: Mus musculus; experiment: Anti-inflammatory activity against LPS-stimulated acute lung injury C57BL/6 mouse model assessed as decrease in IL-1 beta level in serum at 0.1 to 1 mg/kg, ip treated for 3 days and on third day administered with LPS at 30 mins post-compound challenge and measured after 12 hrs by ELISA; type: functional, organism-based; settings: dose 0.1-1 mg/kg, time 3.5 day
[12] = target: T1, Interferon-inducible protein AIM2 (Mus musculus) (UniProt Q91VJ1); experiment: Inhibition of AIM2 inflammasome activation in ICR mouse BMDM assessed as inhibition of poly(dA:dT)-stimulated IL-1 beta expression in cell supernatant at 1 uM treated for 3 hrs with LPS followed by incubation with compound for 1 hr and later cells transfected with poly(dA:dT) for 4 hrs by western blot analysis; type: cell-based; settings: time 5.0 hrs
T1 sequence (whole entry): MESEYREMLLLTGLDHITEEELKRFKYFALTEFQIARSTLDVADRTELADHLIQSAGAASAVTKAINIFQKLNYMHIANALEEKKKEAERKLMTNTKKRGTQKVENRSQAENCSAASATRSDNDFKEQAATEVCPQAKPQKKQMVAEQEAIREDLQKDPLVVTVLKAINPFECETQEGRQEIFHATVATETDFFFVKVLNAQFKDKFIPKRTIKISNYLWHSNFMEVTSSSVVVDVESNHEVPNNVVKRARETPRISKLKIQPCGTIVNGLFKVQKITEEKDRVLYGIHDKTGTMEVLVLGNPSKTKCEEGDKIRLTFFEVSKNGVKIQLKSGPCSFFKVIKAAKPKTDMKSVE

[13] = target: NACHT, LRR and PYD domains-containing protein 3 (Mus musculus) (UniProt Q8R4B8); experiment: Inhibition of NLRP3 inflammasome priming in ICR mouse BMDM assessed as inhibition of pro-IL1 beta protein expression in cell lysate at 1 uM treated for 3 hrs with LPS followed by incubation with compound for 1 hr and later stimulated with MSU for 4 hrs by western blot analysis; type: subcellular; settings: time 5.0 hrs
[14] = test system: Mus musculus; experiment: Anti-inflammatory activity against LPS-stimulated acute lung injury C57BL/6 mouse model assessed as decrease in TNF-alpha level in BALF at 0.1 to 1 mg/kg, ip treated for 3 days and on third day administered with LPS at 30 mins post-compound challenge and measured after 12 hrs by ELISA; type: functional, organism-based; settings: dose 0.1-1 mg/kg, time 3.5 day
[15] = target: NACHT, LRR and PYD domains-containing protein 3 (Mus musculus) (UniProt Q8R4B8); experiment: Inhibition of NLRP3 inflammasome priming in ICR mouse BMDM assessed as inhibition of pro-IL-1 beta expression in cell supernatant at 0.2 to 5 uM pretreated with compound for 1 hr followed by stimulation with LPS for 3 hrs and later incubated with ATP for 30 mins by western blot analysis; type: cell-based; settings: dose 0.2-5 µM, time 4.5 hrs
[16] = test system: Mus musculus; experiment: as §1, with “beta mRNA” for “beta”, “1” for “10”, “RT-qPCR” for “western blot”; type: functional, organism-based; settings: dose 0.1-1 mg/kg, time 3.5 day
[17] = target: NACHT, LRR and PYD domains-containing protein 3 (Mus musculus) (UniProt Q8R4B8); experiment: Inhibition of NLRP3 inflammasome priming in ICR mouse BMDM assessed as inhibition of NLRP3 expression in cell supernatant at 0.2 to 5 uM pretreated with compound for 1 hr followed by stimulation with LPS for 3 hrs and later incubated with ATP for 30 mins by western blot analysis; type: cell-based; settings: dose 0.2-5 µM, time 4.5 hrs
[18] = target: NACHT, LRR and PYD domains-containing protein 3 (Mus musculus) (UniProt Q8R4B8); experiment: Inhibition of NLRP3 inflammasome priming in ICR mouse BMDM assessed as inhibition of pro-IL-1 beta expression in cell lysate at 1 uM treated for 3 hrs with LPS followed by incubation with compound for 1 hr and later stimulated with nigericin for 0.5 hrs by western blot analysis; type: subcellular; settings: time 1.5 hrs
[19] = target: NACHT, LRR and PYD domains-containing protein 3 (Mus musculus) (UniProt Q8R4B8); experiment: Inhibition of NLRP3 inflammasome activation in ICR mouse BMDM assessed as inhibition of LPS/ATP-stimulated IL-1 beta expression in cell supernatant at 1 uM treated for 3 hrs with LPS followed by incubation with compound for 1 hr and later stimulated with ATP for 0.5 hrs by western blot analysis; type: cell-based; settings: time 1.5 hrs
[20] = target: NLR family CARD domain-containing protein 4 (Mus musculus) (UniProt Q3UP24); experiment: Inhibition of NLRC4 inflammasome activation in ICR mouse BMDM assessed as inhibition of FLA-ST-stimulated IL-1 beta secretion in cell supernatant at 1 uM treated for 3 hrs with LPS followed by incubation with compound for 1 hr and later stimulated with FLA-ST for 2 hrs by ELISA; type: cell-based
Chain of NLR family CARD domain-containing protein 4 (Mus musculus) (Q3UP24 whole entry, the tested form may be a part): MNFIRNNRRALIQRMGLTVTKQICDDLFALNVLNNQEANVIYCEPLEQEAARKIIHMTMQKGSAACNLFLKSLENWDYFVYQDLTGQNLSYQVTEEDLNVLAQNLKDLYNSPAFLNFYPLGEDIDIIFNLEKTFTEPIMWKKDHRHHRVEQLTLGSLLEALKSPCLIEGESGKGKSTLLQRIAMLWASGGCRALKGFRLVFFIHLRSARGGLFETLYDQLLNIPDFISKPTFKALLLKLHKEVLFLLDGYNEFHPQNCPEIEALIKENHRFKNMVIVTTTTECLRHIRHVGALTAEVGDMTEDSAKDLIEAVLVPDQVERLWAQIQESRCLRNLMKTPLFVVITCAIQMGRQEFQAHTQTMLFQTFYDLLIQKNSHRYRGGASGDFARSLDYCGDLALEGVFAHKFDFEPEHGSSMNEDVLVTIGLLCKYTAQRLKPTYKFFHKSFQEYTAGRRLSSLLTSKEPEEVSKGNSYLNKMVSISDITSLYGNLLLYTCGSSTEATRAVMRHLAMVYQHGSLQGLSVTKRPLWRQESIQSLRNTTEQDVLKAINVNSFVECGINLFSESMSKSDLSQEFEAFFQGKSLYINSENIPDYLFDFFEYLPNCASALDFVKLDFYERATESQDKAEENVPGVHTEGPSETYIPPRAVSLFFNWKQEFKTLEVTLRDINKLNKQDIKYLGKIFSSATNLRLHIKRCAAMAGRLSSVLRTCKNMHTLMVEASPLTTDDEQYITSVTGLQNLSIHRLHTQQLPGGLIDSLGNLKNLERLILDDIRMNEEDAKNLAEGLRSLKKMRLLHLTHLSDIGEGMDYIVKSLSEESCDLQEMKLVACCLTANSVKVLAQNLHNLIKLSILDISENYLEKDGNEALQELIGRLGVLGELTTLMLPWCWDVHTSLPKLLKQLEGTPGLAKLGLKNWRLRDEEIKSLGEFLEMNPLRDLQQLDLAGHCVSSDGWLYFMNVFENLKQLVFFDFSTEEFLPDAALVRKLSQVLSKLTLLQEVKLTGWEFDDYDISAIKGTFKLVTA

[21] = test system: Mus musculus; experiment: Anti-inflammatory activity against LPS-stimulated acute lung injury C57BL/6 mouse model assessed as decrease in IL-6 level in serum at 0.1 to 1 mg/kg, ip treated for 3 days and on third day administered with LPS at 30 mins post-compound challenge and measured after 12 hrs by ELISA; type: functional, organism-based; settings: dose 0.1-1 mg/kg, time 3.5 day

C=C1C(=O)[C@]23[C@H](OC(=O)Nc4ccc(F)cc4)[C@H]1CC[C@H]2[C@]12C=CCC(C)(C)[C@H]1[C@H](O)[C@@]3(O)OC2
inhibition [1]: inactive | Activity [2]: Active | Activity [3]: Active | inhibition [4]: inactive | Activity [5]: Active | Activity [6]: Dose-Dependent Effect | inhibition [7]: inactive | Activity [8]: Active | Activity [9]: Active | inhibition [10]: inactive | Activity [11]: Dose-Dependent Effect | inhibition [12]: inactive | inhibition [13]: inactive | Activity [14]: Dose-Dependent Effect | inhibition [15]: inactive | Activity [16]: Dose-Dependent Effect | inhibition [17]: inactive | inhibition [18]: inactive | inhibition [19]: Active | inhibition [20]: inactive | Activity [21]: Dose-Dependent Effect
